This is an account of results in article PMC10613967, “The anti-cancer efficacy of a novel phenothiazine derivative is independent of dopamine and serotonin receptor inhibition” (Frontiers in Oncology, 2023).

Counter-ions that a name gives are not always drawn. Like-named read-outs stand apart in the source and are kept apart here.

The subject of data set [1] is A375 cells. Put plainly: Immunofluorescence (α-tubulin, pericentrin, DNA). The data set is classed as cell-based, human. The conditions noted are these: 20µM, 24h. The method, then:
At the end of the incubation, cells were fixed in 4% PFA, permeabilized in PBS-0.2% Triton X100, and blocked in PBS-2.5% BSA before antibody incubation. Cells were incubated with anti-Tubulin and anti-Pericentrin antibodies overnight at 4°C, and then with secondary antibodies for 1 h at room temperature ( Table 1 ). All antibodies were diluted in PBS-2.5% BSA. The coverslips were then mounted on cover glass with a DAPI (4’,6-diamidino-2-phenylindole)-containing mounting media (Invitrogen P36962, Waltham, MA), and imaged with a Leica SP8 confocal microscope.

Data set [2] relates to A375 cells. Kind of data set: Cell viability assay (Cell-Titer-Blue). The data set is classed as cell-based, human.
Description: (§1) Cells were seeded in 96-well plates at a suitable cell density for the growth rates of individual cell lines and the incubation time of the assay. […] Cell viability was determined using Cell-Titer-Blue assay (Promega) according to manufacturer’s instructions. The Synergy HT plate reader (Biotek, Winooski, VT) was used for signal quantification and the fluorescence values were normalized to the vehicle well for each cell line. Absolute IC50 and Growth rate inhibition GR50 ([27]) were calculated with GraphPadPrism software (GraphPad Software, Inc.).
Data set [3] concerns A375 cells. Kind of data set: Cell cycle analysis (PI staining, flow cytometry). The data set is classed as cell-based, human. Conditions: 24h.
Description: (§2) A375 cells were seeded at 250,000 cells/well in 6-well plates and left to attach overnight. […] For cell cycle analysis, cells were detached with trypsin, fixed in ethanol 70%, treated with RNase A, mixed with propidium iodide, and processed with the Becton Dickinson LSR II flow cytometer. Analysis was performed with ModFit LT software. […] Samples were processed with the Becton Dickinson LSR II flow cytometer, and the analysis was performed with FlowJo software. Annexin V positive and PI negative cells were counted as apoptotic cells.
In data set [4] the test system is variety of cancer cell types. Conditions: in vitro; read-out: IC50, cytotoxicity; cited from earlier work.
Data set [5] has as its system A375 cells. Kind of data set: Apoptosis assay (Annexin V staining, flow cytometry). Type of data set: cell-based, human. The conditions noted are these: 24h exposure.
Description: as §2
A further data set has as its system BxPC3. Kind of data set: Cell viability assay (Cell-Titer-Blue). Type of data set: cell-based, human. The conditions noted are these: 72h; read-out: Calculated IC50.
The next data set has as its system U251. Kind of data set: Cell viability assay (Cell-Titer-Blue). Type of data set: cell-based, human. The conditions noted are these: 72h; read-out: Calculated IC50.
A further data set has as its system TCCSUP. Put plainly: Cell viability assay (Cell-Titer-Blue). The data set is classed as cell-based, human. Conditions: 72h; read-out: Calculated IC50.
Another data set concerns RPMI7951. Kind of data set: Cell viability assay (Cell-Titer-Blue). Type of data set: cell-based, human. The conditions noted are these: 72h; read-out: Calculated IC50.
In the next data set the test system is PANC1. Kind of data set: Cell viability assay (Cell-Titer-Blue). Type of data set: cell-based, human. Conditions: 72h; read-out: Calculated IC50.
The next data set has as its system A498. Kind of data set: Cell viability assay (Cell-Titer-Blue). Type of data set: cell-based, human. The conditions noted are these: 72h; read-out: Calculated IC50.
A further data set relates to Hs852T. Kind of data set: Cell viability assay (Cell-Titer-Blue). The conditions noted are these: 72h; read-out: Calculated IC50. The data set is classed as cell-based, human.
Another data set relates to A101D. Kind of data set: Cell viability assay (Cell-Titer-Blue). Type of data set: cell-based, human. The conditions noted are these: 72h; read-out: Calculated IC50.
For a further data set, the system named is A2058. Kind of data set: Cell viability assay (Cell-Titer-Blue). Type of data set: cell-based, human. Conditions: 72h; read-out: Calculated IC50.
Another data set has as its system HCC1806. Kind of data set: Cell viability assay (Cell-Titer-Blue). Type of data set: cell-based, human. Conditions: 72h; read-out: Calculated IC50.
For another data set, the system named is HepG2. Kind of data set: Cell viability assay (Cell-Titer-Blue). The data set is classed as cell-based, human. The conditions noted are these: 72h; read-out: Calculated IC50.
In a further data set the test system is HCT116. Put plainly: Cell viability assay (Cell-Titer-Blue). Type of data set: cell-based, human. Conditions: 72h; read-out: Calculated IC50.
Data set [6] relates to panel of cancer cell lines. Put plainly: Cell viability assay across the panel of cell lines. The data set is classed as cell-based, human. The conditions noted are these: 72h of drug exposure; read-out: Absolute IC50, range across the panel.
Description: (§3) All cell lines were grown at 37°C in a 5% CO2 atmosphere in the ATCC-specified medium containing 10% FBS and 1% NEAA ( Table 1 ).
as §1
In another data set the test system is DU145. Kind of data set: Cell viability assay (Cell-Titer-Blue). The data set is classed as cell-based, human. The conditions noted are these: 72h; read-out: Calculated IC50.
The next data set deals with PC-3. Put plainly: Cell viability assay (Cell-Titer-Blue). The data set is classed as cell-based, human. Conditions: 72h; read-out: Calculated IC50.
The next data set relates to 22Rv1. Kind of data set: Cell viability assay (Cell-Titer-Blue). Type of data set: cell-based, human. Conditions: 72h; read-out: Calculated IC50.
In a further data set the test system is ZR-75-1. Kind of data set: Cell viability assay (Cell-Titer-Blue). Type of data set: cell-based, human. The conditions noted are these: 72h; read-out: Calculated IC50.
The next data set relates to LNCaP. Put plainly: Cell viability assay (Cell-Titer-Blue). The conditions noted are these: 72h; read-out: Calculated IC50. Type of data set: cell-based, human.
Another data set relates to 786-O. Kind of data set: Cell viability assay (Cell-Titer-Blue). The data set is classed as cell-based, human. Conditions: 72h; read-out: Calculated IC50.
In the next data set the test system is RT4. Kind of data set: Cell viability assay (Cell-Titer-Blue). The data set is classed as cell-based, human. The conditions noted are these: 72h; read-out: Calculated IC50.
A further data set relates to U87. Put plainly: Cell viability assay (Cell-Titer-Blue). Type of data set: cell-based, human. Conditions: 72h; read-out: Calculated IC50.
The test system of the next data set is WM-266-4. Kind of data set: Cell viability assay (Cell-Titer-Blue). Type of data set: cell-based, human. The conditions noted are these: 72h; read-out: Calculated IC50.
Another data set deals with SKMEL28. Put plainly: Cell viability assay (Cell-Titer-Blue). Type of data set: cell-based, human. The conditions noted are these: 72h; read-out: Calculated IC50.
In a further data set the test system is HT29. Kind of data set: Cell viability assay (Cell-Titer-Blue). The data set is classed as cell-based, human. The conditions noted are these: 72h; read-out: Calculated IC50.
Another data set has as its system MDA-MB-231. Put plainly: Cell viability assay (Cell-Titer-Blue). The conditions noted are these: 72h; read-out: Calculated IC50. The data set is classed as cell-based, human.

Description for 22Rv1: as §1
Description for 786-O: as §3, §1
Description for A101D: as §3, §1
Description for A2058: as §3, §1
Description for A498: as §3, §1
Description for BxPC3: as §1
Description for DU145: as §3, §1
Description for HCC1806: as §3, §1
Description for HCT116: as §1
Description for HT29: as §1
Description for HepG2: as §3, §1
Description for Hs852T: as §3, §1
Description for LNCaP: as §3, §1
Description for MDA-MB-231: as §1
Description for PANC1: as §1
Description for PC-3: as §3, §1
Description for RPMI7951: as §1
Description for RT4: as §3, §1
Description for SKMEL28: as §1
Description for TCCSUP: as §3, §1
Description for U251: as §1
Description for U87: as §1
Description for WM-266-4: as §3, §1
Description for ZR-75-1: as §3, §1

Regarding `CN(C)CCCN1c2ccccc2Sc2ccc(Cl)cc21` [Chlorpromazine, chlorpromazine hydrochloride], in the data set on A375 cells [1], the “mitotic phenotype by immunofluorescence” value is “cells often appeared binucleated”. For the same molecule, in the data set with A375 cells [2] (Homo sapiens, A-375, 24h treatment, read-out: IC50, cell viability), the IC50 was found to be 13.6 µM. Further, the “cells in the G2/M phase” value in the data set with A375 cells [3] (20µM) is reported as 69.8%. The “cell cycle arrest (in words)” value with A375 cells [3] is “induces a cell cycle arrest in G2/M”.

For `OCCN1CCN(CCCN2c3ccccc3Sc3ccc(C(F)(F)F)cc32)CC1` [Fluphenazine, fluphenazine hydrochloride], the “mitotic phenotype by immunofluorescence” value in the data set on A375 cells [1] is recorded as “dramatic decrease in the number of cells in mitosis”. The “concentrations inducing G0/G1 cell cycle arrest” value in the data set with A375 cells [3] is no less than 10 µM. Also, in data set [4], the IC50 is 5 to 20 µM. Also, the “concentrations inducing apoptosis (annexin V staining)” value in the data set with A375 cells [5] is on record as no less than 20 µM.

`Cl.NCCCCCCNS(=O)(=O)c1cccc2c(Cl)cccc12` [W-7, W-7 hydrochloride]: the IC50 in the data set on BxPC3 was 38.1 µM; with U251, 30 µM; in the data set with TCCSUP, 25.9 µM; with RPMI7951, 26.5 µM; with PANC1 it was 32.7 µM; with A498 it was 28 µM. The IC50 was 21.8 µM in the data set on A375 cells [2] (72h, read-out: Calculated IC50); 24.5 µM in the data set on Hs852T; 26.9 µM in the data set on A101D; 24.3 µM with A2058; 26.9 µM in the data set on HCC1806; 26.8 µM with HepG2. Further, the IC50 in the data set on HCT116 is 27.9 µM; in data set [6] it was 21.8 to 56.8 µM; in the data set with DU145, 37.3 µM; in the data set on PC-3, 40.8 µM; in the data set on 22Rv1 it was 39.1 µM; with ZR-75-1, 25.2 µM. For the same molecule, the IC50 was 36.6 µM in the data set with LNCaP; 33.5 µM in the data set on 786-O; 45.2 µM in the data set on RT4; 56.8 µM in the data set with U87; 28.2 µM with WM-266-4; 29.3 µM with SKMEL28. Moreover, the values for the IC50 with HT29 and in the data set on MDA-MB-231 were 26.4 µM and 34.6 µM, respectively. Moreover, the “cell cycle arrest (in words)” value with A375 cells [3] was “did not induce a cell cycle arrest”.
